Like-named read-outs stand apart in the source and are kept apart here.
How the values were obtained:
pneumolysin (Ply) [1] = molecular target: T1, pneumolysin (Ply) (Streptococcus pneumoniae serotype 2, UniProt Q04IN8); test: cell-based; format: cell-based
T1 construct: made in house; host or cells: E. coli BL21(DE3)
Protocol: Native human erythrocytes were taken into EDTA tubes. The erythrocytes were washed three times with PBS (0.15 M NaCl, 2.7 mM KCl, 8.1 mM Na2HPO4 and 1.5 mM KH2PO4) by centrifugation at 700× g for 10 min. The purified erythrocytes were stored at +4 °C. Erythrocytes (1% v/v) in PBS were mixed with 1 nM Ply and dilution series of polyphenol inhibitors in 96-well microtiter plates. The reaction was incubated for 30 min at 37 °C. The plates were centrifuged, and the supernatant was pipetted into flat-bottomed microtiter plates to measure the absorbance at 570 nm (VICTOR X4, PerkinElmer, Turku, Finland) of the released hemoglobin from lysed erythrocytes. The absorbances of triplicate measurements are presented as a function of inhibitor concentration. The IC50 values were calculated with Origin data analysis software (2016, OriginLab Corporation, Northampton, MA, USA).

pneumolysin (Ply) [2] = molecular target: T1, pneumolysin (Ply); test: Precipitation assay of pneumolysin-tannin interaction; format: binding; settings: for Minimum Precipitating Concentration: 10 μM Ply, Na-acetate buffer pH 5.0, 25 °C, 30 min, absorbance 414 nm; for Precipitation Relative Power: fold compared to vescalagin (=1); for Fold higher precipitating concentration compared to hemolysis IC50: minimum precipitating concentration vs hemolysis IC50
Protocol: The precipitation assay with tannins was done as described previously with bovine serum albumin [22]. First, 10 μM of Ply and dilution series of polyphenols (5–1000 µM) were incubated in a Na-acetate buffer (200 mM NaCl and 50 mM CH3COONa; pH 5.0) at 25 °C for 30 min with shaking. The reactions were carried out in Multiskan Ascent plate reader (Labsystems, Vantaa, Finland) and the precipitation was measured at 414 nm. The minimum concentration precipitating Ply was calculated with Origin data analysis software (2016, OriginLab Corporation, Northampton, MA, USA).

[3] = IC50 (screening with hemolysis assays), estimated from the inhibition curves, two-fold dilutions of tannins
[4] = read-out: IC50 (screening with hemolysis assays), estimated from the inhibition curves, two-fold dilutions of tannins
[5] = Hemolysis Inhibition IC50, 1 nM Ply, 1% human erythrocytes, 30 min 37 °C, logistic fit
[6] = classification by IC50 from two-fold dilutions

T1 sequence (Q04IN8 whole entry): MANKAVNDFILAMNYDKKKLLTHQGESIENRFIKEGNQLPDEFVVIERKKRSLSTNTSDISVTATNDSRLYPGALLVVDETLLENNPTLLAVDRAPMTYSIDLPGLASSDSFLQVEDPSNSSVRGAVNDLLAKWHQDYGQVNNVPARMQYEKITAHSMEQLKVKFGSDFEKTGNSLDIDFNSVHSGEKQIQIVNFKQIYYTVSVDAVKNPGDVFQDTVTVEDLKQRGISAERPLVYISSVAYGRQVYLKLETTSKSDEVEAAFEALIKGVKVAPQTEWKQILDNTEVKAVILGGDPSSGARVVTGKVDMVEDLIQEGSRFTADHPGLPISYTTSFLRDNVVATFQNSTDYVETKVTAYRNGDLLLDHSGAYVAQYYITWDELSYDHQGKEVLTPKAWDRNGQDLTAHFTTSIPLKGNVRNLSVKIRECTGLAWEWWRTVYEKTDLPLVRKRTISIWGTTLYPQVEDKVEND

O=C1O[C@H]2[C@@H]3OC(=O)c4cc(O)c(O)c(O)c4-c4c(O)c(O)c5oc(=O)c6c(c(O)c(O)c7oc(=O)c4c5c76)-c4c(cc(O)c(O)c4O)C(=O)OC[C@H]3OC(O)[C@@H]2OC(=O)c2cc(O)c(O)c(O)c2-c2c1cc(O)c(O)c2O (mixture of isomers) [Punicalagin]
IC50 (pneumolysin (Ply) [1]; [3]): 60 nM

O=C(O[C@@H]1O[C@@H]2COC(=O)c3cc(O)c(O)c(O)c3-c3c(cc(O)c(O)c3O)C(=O)O[C@H]2[C@H](O)[C@H]1OC(=O)c1cc(O)c(O)c(O)c1)c1cc(O)c(O)c(O)c1 [1,2,-di-O-galloyl-4,6-HHDP-β-D-glucose]
IC50 (pneumolysin (Ply) [1]; [3]): 70 nM

O=C(O[C@@H]1O[C@H](CO)[C@@H](O)[C@H](O)[C@H]1O)c1cc(O)c(O)c(O)c1 [1-O-galloyl-β-D-glucose]
IC50 (pneumolysin (Ply) [1]; [3]): > 100 nM

O=C(OC1OC2COC(=O)c3cc(O)c(O)c(O)c3-c3c(cc(O)c(O)c3O)C(=O)OC2C2OC(=O)c3cc(O)c(O)c(O)c3-c3c(cc(O)c(O)c3O)C(=O)OC12)c1cc(O)c(O)c(Oc2c(C(=O)OC3OC4COC(=O)c5cc(O)c(O)c(O)c5-c5c(cc(O)c(O)c5O)C(=O)OC4C4OC(=O)c5cc(O)c(O)c(O)c5-c5c(cc(O)c(O)c5O)C(=O)OC34)cc(O)c(O)c2O)c1 (stereo not shown) [Agrimoniin]
IC50 (pneumolysin (Ply) [1]; [4]): 30 nM

O=C1OC[C@H]2OC(=O)c3cc(O)c(O)c(O)c3-c3c(O)c(O)c(O)c4c3C(=O)O[C@H]([C@H]3OC(=O)c5c-4c(O)c(O)c(O)c5[C@H]3O)[C@@H]2OC(=O)c2cc(O)c(O)c(O)c2-c2c1cc(O)c(O)c2O [Castalagin]
IC50 (pneumolysin (Ply) [1]; [3]): 80 nM

O=C(O[C@@H]1O[C@@H]2COC(=O)c3cc(O)c(O)c(O)c3-c3c(cc(O)c(O)c3O)C(=O)O[C@H]2[C@@H]2OC(=O)c3cc(O)c(O)c(O)c3-c3c(cc(O)c(O)c3O)C(=O)O[C@@H]12)c1cc(O)c(O)c(O)c1 [Casuarictin]
IC50 (pneumolysin (Ply) [1]; [3]): 40 nM

O=C(O[C@@H]1COC(=O)c2cc(O)c(O)c(O)c2-c2c(cc(O)c(O)c2O)C(=O)O[C@H]1[C@@H]1OC(=O)c2cc(O)c(O)c(O)c2-c2c(O)c(O)c(O)c3c2C(=O)O[C@H]1[C@@H]3O)c1cc(O)c(O)c(O)c1 [Casuarinin]
IC50 (pneumolysin (Ply) [1]; [3]): 90 nM

O=C(O)C[C@@H]1C(=O)O[C@H]2[C@@H]3OC(=O)c4cc(O)c(O)c(O)c4-c4c(cc(O)c(O)c4O)C(=O)OC[C@H]2O[C@@H](OC(=O)c2cc(O)c(O)c(O)c2)[C@@H]3OC(=O)c2cc(O)c(O)c3c2[C@H]1[C@H](O)C(=O)O3 [Chebulagic acid]
IC50 (pneumolysin (Ply) [1]; [3]): > 100 nM

O=C(O[C@@H]1O[C@@H]2COC(=O)c3cc(O)c(O)c(O)c3-c3c(cc(O)c(O)c3O)C(=O)O[C@H]2[C@H](OC(=O)c2cc(O)c(O)c(O)c2)[C@H]1OC(=O)c1cc(O)c(O)c(O)c1)c1cc(O)c(O)c(Oc2c(C(=O)O[C@H]3O[C@@H]4COC(=O)c5cc(O)c(O)c(O)c5-c5c(cc(O)c(O)c5O)C(=O)O[C@H]4[C@@H]4OC(=O)c5cc(O)c(O)c(O)c5-c5c(cc(O)c(O)c5O)C(=O)O[C@@H]34)cc(O)c(O)c2O)c1 [Gemin A]
Minimum Precipitating Concentration (pneumolysin (Ply) [2]): 6.2 µM
Precipitation Relative Power (pneumolysin (Ply) [2]): 130
Fold higher precipitating concentration compared to hemolysis IC50 (pneumolysin (Ply) [2]): 150 fold
Hemolysis Inhibition Inhibitory Power (pneumolysin (Ply) [1]): 5.9
IC50 (pneumolysin (Ply) [1]; [5]): 41 ± 1 nM
IC50 (pneumolysin (Ply) [1]; [3]): 20 nM
Inhibitor class in hemolysis inhibition assay (pneumolysin (Ply) [1]; [6]): potent (potent inhibitors (IC50 10–30 nM))

O=C1O[C@H]2[C@@H]3OC(=O)c4cc(O)c(O)c(O)c4-c4c(cc(O)c(O)c4O)C(=O)OC[C@H]2O[C@@H](OC(=O)c2cc(O)c(O)c(O)c2)[C@@H]3OC(=O)c2cc(O)c(O)c3c2[C@@H]2C1=CC(=O)[C@](O)(O3)C2(O)O [Geraniin]
IC50 (pneumolysin (Ply) [1]; [3]): 100 nM

O=C(OC1OC2COC(=O)c3cc(O)c(O)c(O)c3-c3c(cc(O)c(O)c3O)C(=O)OC2C2OC(=O)c3cc(O)c(O)c(O)c3-c3c(cc(O)c(O)c3O)C(=O)OC12)c1cc(O)c(O)c(Oc2c(O)c(O)c(O)c3c2C(=O)OC2C(COC(=O)c4cc(O)c(O)c(O)c4-3)OC(OC(=O)c3cc(O)c(O)c(Oc4c(O)c(O)c(O)c5c4C(=O)OC4C(COC(=O)c6cc(O)c(O)c(O)c6-5)OC(OC(=O)c5cc(O)c(O)c(O)c5)C5OC(=O)c6cc(O)c(O)c(O)c6-c6c(cc(O)c(O)c6O)C(=O)OC45)c3)C3OC(=O)c4cc(O)c(O)c(O)c4-c4c(cc(O)c(O)c4O)C(=O)OC23)c1 (stereo not shown) [Lambertianin C]
IC50 (pneumolysin (Ply) [1]; [4]): 20 nM

O=C(O[C@H]1[C@@H]2OC(=O)c3cc(O)c(O)c(O)c3-c3c4cc(c(O)c3O)Oc3c(cc(O)c(O)c3O)C(=O)O[C@H]3C(O)O[C@@H]5COC(=O)c6cc(O)c(O)c(O)c6-c6c(cc(c(O)c6O)Oc6c(cc(O)c(O)c6O)C(=O)O[C@H]1C(O)O[C@@H]2COC4=O)C(=O)O[C@H]5[C@@H]3OC(=O)c1cc(O)c(O)c(O)c1)c1cc(O)c(O)c(O)c1 (stereo partly shown) [Oenothein B]
Minimum Precipitating Concentration (pneumolysin (Ply) [2]): 510 µM
Precipitation Relative Power (pneumolysin (Ply) [2]): 1.6
Fold higher precipitating concentration compared to hemolysis IC50 (pneumolysin (Ply) [2]): 9300 fold
Hemolysis Inhibition Inhibitory Power (pneumolysin (Ply) [1]): 4.4
IC50 (pneumolysin (Ply) [1]; [5]): 55 ± 2.1 nM
IC50 (pneumolysin (Ply) [1]; [3]): 60 nM
Inhibitor class in hemolysis inhibition assay (pneumolysin (Ply) [1]; [6]): moderate (moderate inhibitors (IC50 40–90 nM))

O=C1OC[C@H]2OC(O)[C@@H]3OC(=O)c4cc(O)c(O)c(O)c4-c4c(cc(O)c(O)c4O)C(=O)O[C@H]3[C@@H]2OC(=O)c2cc(O)c(O)c(O)c2-c2c1cc(O)c(O)c2O (stereo partly shown) [Pedunculagin]
IC50 (pneumolysin (Ply) [1]; [3]): > 100 nM

O=C(OC1OC2COC(=O)c3cc(O)c(O)c(O)c3-c3c(cc(O)c(O)c3O)C(=O)OC2C2OC(=O)c3cc(O)c(O)c(O)c3-c3c(cc(O)c(O)c3O)C(=O)OC12)c1cc(O)c(O)c(Oc2c(O)c(O)c(O)c3c2C(=O)OC2C(COC(=O)c4cc(O)c(O)c(O)c4-3)OC(OC(=O)c3cc(O)c(O)c(O)c3)C3OC(=O)c4cc(O)c(O)c(O)c4-c4c(cc(O)c(O)c4O)C(=O)OC23)c1 (stereo not shown) [Sanguiin H-6]
IC50 (pneumolysin (Ply) [1]; [4]): 20 nM

O=C(OC1COC(=O)c2cc(O)c(O)c(O)c2-c2c(cc(O)c(O)c2O)C(=O)OC1C1OC(=O)c2cc(O)c(O)c(O)c2-c2c(O)c(O)c(O)c3c2C(=O)OC1C3O)c1cc(O)c(O)c(O)c1 (stereo not shown) [Stachyurin]
IC50 (pneumolysin (Ply) [1]; [3]): > 100 nM

O=C(OC1O[C@@H]2COC(=O)c3cc(O)c(O)c(O)c3-c3c(cc(O)c(O)c3O)C(=O)O[C@H]2[C@H](OC(=O)c2cc(O)c(O)c(O)c2)[C@H]1OC(=O)c1cc(O)c(O)c(O)c1)c1cc(O)c(O)c(O)c1 (stereo partly shown) [Tellimagrandin II]
Inhibitor class in hemolysis inhibition assay (pneumolysin (Ply) [1]): potent (key: negative or weak inhibitors (IC50 ≥ 100 nM); moderate inhibitors (IC50 40–90 nM); potent inhibitors (IC50 10–30 nM))
IC50 (pneumolysin (Ply) [1]; [3]): 10 nM

O=C(O[C@H]1[C@@H]2OC(=O)c3cc(O)c(O)c(O)c3-c3c(cc(O)c(O)c3O)C(=O)OC[C@H]2OC(O)[C@@H]1OC(=O)c1cc(O)c(O)c(O)c1)c1cc(O)c(O)c(O)c1 (stereo partly shown) [Tellimagrandin I]
IC50 (pneumolysin (Ply) [1]; [3]): 60 nM

O=C1OCC2OC(=O)c3cc(O)c(O)c(O)c3-c3c(O)c(O)c(O)c4c3C(=O)OC(C2OC(=O)c2cc(O)c(O)c(O)c2-c2c1cc(O)c(O)c2O)C1OC(=O)c2c-4c(O)c(O)c(O)c2C1O (stereo not shown) [Vescalagin]
Minimum Precipitating Concentration (pneumolysin (Ply) [2]): 820 µM
Precipitation Relative Power (pneumolysin (Ply) [2]): 1
Fold higher precipitating concentration compared to hemolysis IC50 (pneumolysin (Ply) [2]): 3400 fold
IC50 (pneumolysin (Ply) [1]; [5]): 240 ± 5.3 nM
IC50 (pneumolysin (Ply) [1]; [3]): > 100 nM
Inhibitor class in hemolysis inhibition assay (pneumolysin (Ply) [1]; [6]): weak (negative or weak inhibitors (IC50 ≥ 100 nM))
Hemolysis Inhibition Inhibitory Power (pneumolysin (Ply) [1]; relative to IC50 of vescalagin (=1)): 1
